16 compounds from EP0325571B1, “New amines, their use and preparation” (priority 1988, dated 1989) can be followed below.

Read-outs that look alike come from different tables or passages of the source.

Data set [1] has as its system isolated urinary bladder. Description: Anticholinergic activity on isolated urinary bladder (inhibition of carbachol-induced contraction of bladder strips). Details: species or system guinea-pigs. The following applies: 60 minutes incubation with antagonist. The source says: a) Anticholinergic activity on isolated urinary bladder
Male guinea-pigs, weighing 250-350 g, were killed by a blow on the head and exsanguinated. The urinary bladders were quickly removed and placed in Na^+-Krebs, in which they were kept throughout the dissection procedure. The bladders were dissected free from adherent fat and connective tissue before they were cut open by an incision on each side from the base towards apex. The mucosa was carefully removed with a pair of scissors. Four strips, approximately 3-5 mm long were prepared by cutting in a parallel direction to the longitudinal muscle fibres, on each half of the bladder.
The bladder strips were immediately mounted vertically in 5 ml organ baths containing Na^+-Krebs solution aerated with carbogene gas to maintain the pH at about 7.4. The temperature, 37°C, was thermostatically controlled by a Lauda MS3 thermostatic circulator. The preparations were suspended between two hooks, one of which was connected to a Grass Instruments FT03 force transducer. The isomeric tension of the preparations was recorded by a Grass polygraph model 79D. The resting tension was applied to approximately 5 mN. The strips were allowed to stabilize for at least 45 minutes. During this period the resting tension was adjusted to 5 mN and the preparations were repeatedly washed.
In the preliminary experiments concentration - effect curves for carbachol (carbamylcholin chloride) were studied, in order to determine a suitable agonist concentration for inhibition studies with antagonist. The carbachol concentration chosen, 3 x 10^-6M, produced a submaximal contractant response (70%). In the inhibition studies, the strips were contracted with carbachol (3 x 10^-6M) every 15 minutes. The strips were washed three times after every agonist addition. This procedure was repeated until a reproducible contractant response was observed. A variation of about 10% for three subsequent contractions was accepted as reproducible.
Initially each antagonist was tested in a concentration of 10-t1M, on. two bladder-strips from different guinea-pigs. When a reproducible response with 3 × 10^-6M carbachol was obtained, the strips were incubated with the antagonist for 15 minutes before the next carbachol was added. If the antagonist produced more than 50% inhibition of the response to carbachol, a complete concentration-inhibition curve was also made. In the complete inhibition curves, the strips were then incubated for 60 minutes with a fixed concentration of the antagonist before the next addition of carbachol. The effect of the antagonists was calculated as per cent inhibition of the mean of the initial agonist-induced contractions. To generate concentration-inhibition curves the antagonists were studied in 6-8 concentrations and for each concentration a fresh preparation was used, i.e. the strips were only exposed to the antagonist once before they were discarded.

Data set [2] deals with portal vein. The data set is described as follows: Noradrenaline antagonism on isolated portal vein. The arrangement: species or system rat. The settings on record: 10 min. The source says:
(§1) b) Antagonistic effect to noradrenaline and calcium on the portal vein
(§2) Preparation of isolated portal vein from rat
(§3) Animals : Albino, male rats, weighing about 200 g.
(§4) The rat is killed by a blow on the neck and decapitated. The abdomen is opened, the vein is dissected free from fat, cut open longitudinally and mounted in an organ bath. Changes in isometric tension is registered by a force displacement transducer, connected to an amplifier and a writing oscillograph.
Noradrenaline - antagonism on portal vein
Doses: Noradrenaline 3 x 10-^7 M
The chosen doses give about 70% of maximal response. The agonist is added to the bath at 10-minutes intervals. When reproducible contractions are obtained a fixed concentration of the test substance is added to the bath. After an incubation period of 10 minutes noradrenaline is added. The next concentration of the test substance is added when the original response of the agonist is obtained.
The antagonistic effect of the substance is calculated as per cent inhibition of the mean response by three preceding doses of the agonist.

The subject of data set [3] is portal vein. The data set is described as follows: Ca-antagonistic effect on isolated portal vein (spontaneous myogenic activity). The arrangement: species or system rat. The following applies: 10 mM K^+-solution added, cumulative doses.
Text: as §1, §2, §3, §4
Ca - antagonistic effect on portal vein
10 mM K^+-solution is added to the Krebs buffer to stabilize the spontaneous myogenic activity of the vein. The amplitude of the muscle contractions is measued. The test substance is added to the bath in cumulative doses until total inhibition is obtained.

Data set [4] in a line: Acute toxicity in mice, i.v. bolus. The data set is classed as in vivo. The following applies: mouse, in vivo, iv; LD50-interval: between highest dose where 4 mice survived and lowest dose where 4 mice died within 5 minutes after i.v. bolus. As to the method:
(§5) d) Acute toxicity in mice
(§6) The antagonists to be tested were dissolved in 0.9% NaCI. If they were not soluble in 0.9% NaCI they were dissolved in double distilled water. The solutions were prepared on the day of the experiment.
(§7) White male mice, 25 g, were placed in a mouse holder. The tested compounds were given as i.v. bolus doses in one of the four tail-veins, with a volume of 0.01 ml/g mouse. Each substance concentration was given to a group of four mice. 4-5 different concentrations of the antagonists were made and tested.
(§8) LDso-interval : The LD50-interval was between the highest dose where 4 mice survived and the lowest dose where 4 mice died within 5 minutes after an i.v. bolus dose.

Data set [5] has as its system mice. The data set is described as follows: Acute toxicity in mice, i.v. bolus. The data set is classed as in vivo. The following applies: lowest dose where 4 mice of 4 tested died within 5 minutes after i.v. bolus. As to the method: as §5, §6, §7, §8
Data set [6] relates to conscious rat. The data set is described as follows: Effect on heart rate in conscious rat (ECG). In kind it is in vivo. The settings on record: i.v. injection. The source says:
e) Effect on heart rate in conscious rat
The animal is slightly anaestetized by ether and an infusion cannula is inserted into a tail vein. While still asleep the rat is placed in a simple device, made of a coarse, somewhat elastic net fixing the rat in a constant position. Electrodes are attached to the extremities and connected to an ECG-pulse pre-amplifier and a Grass polygraph. By recording the ECG, the heart rate can then be determined.
Before any substance is given the animal has regained consciousness and the heart rate has been constant for at least 15 minutes.
The substance is injected, i.v. in the infusion cannula and flushed with physiological saline.
ECG is recorded 0.25, 0.5, 1, 2, 3 and 5 minutes after completed injection and then every 5 minutes until the original heart rate is obtained.

[7] abbreviates: Cavia porcellus, 1 h, guinea-pig bladder strips contracted with carbachol 3 x 10^-6M, read-out: Antichol. effect IC50.
Setting [8] is: rat portal vein, noradrenaline 3 x 10-^7 M, 10 minutes incubation, read-out: Anti-N.A. effect IC50.
Setting [9] is: rat portal vein, read-out: Anti-Ca effect IC50.
Where [10] appears, read: read-out: Antichol. effect IC50, guinea-pig bladder strips contracted with carbachol 3 x 10^-6M.
[11] abbreviates: Cavia porcellus, 1 h, read-out: Antichol. effect IC50 (M), guinea-pig bladder strips contracted with carbachol 3 x 10^-6M.
[12] abbreviates: Rattus norvegicus, read-out: Anti-N.A. effect IC50 (M).
Setting [13] is: Rattus norvegicus, read-out: Anti-Ca effect IC50 (M), rat portal vein.

Broadly, the IC50 is the concentration that gives 50% inhibition. By LD50 is commonly meant the dose at which mortality reaches 50%. As to `CC(C)N(CCC(c1ccccc1)c1ccccc1O)C(C)C` (racemic) [Compound 1, N,N-Diisopropyl-3-(2-hydroxyphenyl)-3-phenylpropylamine], the IC50 came out at 1.8e-08 M in data set [1] (setting [7]), 1e-05 M in data set [2] (setting [8]) and 1.5e-05 M in data set [3] (setting [9]). The compound further came in with an LD50 at 5 min in data set [4] of 10 to 20 mg/kg. This compound also gave a Lethal dose in data set [5] of 20 mg/kg. The “Effect on heart rate threshold dose” value in data set [6] lay in the range of 1 to 3 mg/kg.
As to `Cc1ccc(O)c(C(CCN(C(C)C)C(C)C)c2ccccc2)c1` (single isomer, unassigned) [Compound 4b, (-)-N,N-Diisopropyl-3-(2-hydroxy-5-methylphenyl)-3-phenylpropylamine hydrogen D(-)-tartrate], the IC50 turned out to be 1.3e-06 M in data set [1] (setting [10]) and 6e-06 M in data set [3] (read-out: Anti-Ca effect IC50, rat portal vein).
For the compound `CC(C)N(CCC(c1ccccc1)c1ccccc1O)C(C)C` (single isomer, unassigned; (+)) [Compound 1a, (+)-N,N-Diisopropyl-3-(2-hydroxyphenyl)-3-phenylpropylamine], in data set [1] (setting [7]), the IC50 was found to be 1.8e-08 M.
`Cc1ccc(O)c(C(CCN(C(C)C)C(C)C)c2ccccc2)c1.O=C(O)C(O)C(O)C(=O)O` (single isomer, unassigned; (+)) [Compound 4a, (+)-N,N-Diisopropyl-3-(2-hydroxy-5-methylphenyl)-3-phenylpropylamine hydrogen tartrate]: the IC50 was determined as 1.3e-08 M in data set [1] (read-out: Antichol. effect IC50, guinea-pig bladder strips contracted with carbachol 3 x 10^-6M, tartrate) and 6.5e-06 M in data set [3] (read-out: Anti-Ca effect IC50, rat portal vein, tartrate). The compound also gave an LD50 at 5 min in data set [4] of 10 to 20 mg/kg.
In the case of `CC(C)N(CCC(c1ccccc1)c1ccccc1O)C(C)C` (single isomer, unassigned; (-)) [Compound 1b, (-)-N,N-diisopropyl-3-(2-hydroxyphenyl)-3-phenylpropylamine], the half-inhibitory concentration (IC50) in data set [1] (guinea-pig bladder strips contracted with carbachol 3 x 10^-6M, read-out: Antichol. effect IC50) is 1.4e-08 M.
`COc1ccccc1C(CCN(C)C(C)(C)C)c1ccccc1` (stereo not drawn) [Compound 2]: the IC50 is 1.5e-07 M in data set [1] (setting [7]), 3.5e-06 M in data set [2] (setting [8]) and 9e-06 M in data set [3] (setting [9]). Also, the LD50 at 5 min in data set [4] was 10 to 20 mg/kg. In addition, the Lethal dose in data set [5] is 20 mg/kg.
`COc1ccccc1C(CCN(C(C)C)C(C)C)c1ccccc1` (stereo not drawn) [Compound 3]: the IC50 is 2.4e-07 M in data set [1] (setting [11]), 3.6e-06 M in data set [2] (setting [12]) and more than 0.0001 M in data set [3] (setting [13]). In data set [4], this compound had an LD50 at 5 min of 3 to 10 mg/kg. Further, the Lethal dose in data set [5] is 10 mg/kg.
Consider `Cc1ccc(O)c(C(CCN(C(C)C)C(C)C)c2ccccc2)c1` (stereo not drawn) [Compound 4, N,N-Diisopropyl-3-(2-hydroxy-5-methylphenyl)-3-phenylpropylamine], for which the IC50 in data set [1] (setting [10]) was 1.5e-08 M; in data set [2] (setting [12]) it was 5.5e-06 M; in data set [3] (setting [13]) it was 6e-06 M. The compound further gave an LD50 at 5 min in data set [4] of 30 to 40 mg/kg.
As to `CN(CCC(c1ccccc1O)c1ccccc1O)C(C)(C)C` [Compound 5], the IC50 was 4.9e-09 M in data set [1] (setting [7]), 3.8e-05 M in data set [2] (setting [8]) and 3e-05 M in data set [3] (setting [9]). Besides, in data set [4], the LD50 at 5 min lay within 30 to 45 mg/kg. The compound also had a Lethal dose in data set [5] of 45 mg/kg. The “Effect on heart rate threshold dose” value in data set [6] lay within 1 to 3 mg/kg.
For `CC(C)N(CCC(c1ccccc1)c1cc(O)ccc1O)C(C)C` (stereo not drawn) [Compound 7], the IC50 in data set [1] (setting [7]) was 1.9e-08 M; in data set [2] (setting [8]), 5e-05 M; in data set [3] (setting [9]), 6.5e-05 M. This compound had an LD50 at 5 min in data set [4] of 30 to 50 mg/kg. In addition, the Lethal dose in data set [5] came out at 50 mg/kg.
For `CN(CCC(c1ccccc1)c1cc(O)ccc1O)C(C)(C)C` (stereo not drawn) [Compound 8] the same measures were 3.1e-08 M, 5e-05 M, more than 5e-05 M, more than 6 mg/kg and more than 6 mg/kg.
In the case of `CN(CCC(c1ccccc1)c1ccccc1O)C(C)(C)C` (stereo not drawn) [Compound 9], the IC50 in data set [1] (setting [7]) worked out at 1.6e-08 M; in data set [2] (setting [8]), 5e-05 M; in data set [3] (setting [9]), 2.5e-05 M. In data set [5], this compound came in with a Lethal dose of 20 mg/kg.
For the compound `COc1ccccc1C(CCN1C(C)(C)CCCC1(C)C)c1ccccc1` (stereo not drawn) [Compound 10], the figures for the IC50 in data set [1] (setting [7]), in data set [2] (setting [8]) and in data set [3] (setting [9]) were 6.2e-08 M, 4e-06 M and 7e-06 M, respectively.
As for `CC(C)N(CCC(c1ccccc1O)c1ccccc1O)C(C)C` [Compound 13], the IC50 came out at 9e-09 M in data set [1] (setting [11]), 3e-05 M in data set [2] (setting [12]) and 1.5e-05 M in data set [3] (setting [13]). The LD50 at 5 min in data set [4] lay in the range of 5 to 10 mg/kg. The Lethal dose in data set [5] is 10 mg/kg.
For `COc1ccccc1C(CCN(C)C)c1ccccc1` (stereo not drawn) [GB-A-1.169.944, N,N-dimethyl-3-(2-methoxyphenyl)-3-phenylpropylamine, reference compound], the half-inhibitory concentration (IC50) was 1.2e-06 M in data set [1] (setting [7]), 4.4e-06 M in data set [2] (setting [8]) and 2.1e-05 M in data set [3] (setting [9]). Also, the median lethal dose (LD50) at 5 min in data set [4] lay within 10 to 15 mg/kg. In data set [5], this compound gave a Lethal dose of 15 mg/kg.
Take `CC(CC(c1ccccc1)c1ccccc1)NC(C)(C)C` (stereo not drawn) [Terodiline, terodiline, reference compound]: the IC50 stood at 5.2e-07 M in data set [1] (setting [7]), 2.4e-06 M in data set [2] (setting [8]) and 1e-05 M in data set [3] (setting [9]). Further, the LD50 at 5 min in data set [4] was in the range of 15 to 20 mg/kg. This compound yielded a Lethal dose in data set [5] of 20 mg/kg. Further, the “Effect on heart rate threshold dose” value in data set [6] was in the range of 1 to 3 mg/kg.
